The text below walks through data of paper doi:10.1101/850305v1 (biorxiv, 2019).

Assay [1] relates to CDY0154 E. coli Δ9efflux. Briefly: microbe, parasite or virus in culture. The settings on record: Escherichia coli.
The test system of assay [2] is VECO2526 E. coli ΔtolC. Briefly: microbe, parasite or virus in culture. The conditions noted are these: Escherichia coli.
The subject of assay [3] is ATCC 25922 E. coli clinical isolates. Briefly: microbe, parasite or virus in culture. The conditions noted are these: Escherichia coli.
The subject of assay [4] is Escherichia coli TUP0115 ΔtolC pLacZα. Nature of the assay: microbe, parasite or virus in culture. The settings on record: read-out: MIC.
Assay [5] addresses T1, E. coli LpxA (Escherichia coli, UniProt P0A722).
T1 sequence (P0A722 1-262): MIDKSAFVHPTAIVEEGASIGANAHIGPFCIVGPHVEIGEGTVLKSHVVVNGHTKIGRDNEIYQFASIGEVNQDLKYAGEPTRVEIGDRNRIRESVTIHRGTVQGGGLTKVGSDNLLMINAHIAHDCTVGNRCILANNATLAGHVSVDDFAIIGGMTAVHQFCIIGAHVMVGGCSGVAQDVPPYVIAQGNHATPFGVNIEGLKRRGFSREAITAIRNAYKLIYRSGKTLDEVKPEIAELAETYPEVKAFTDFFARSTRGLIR
Nature of the assay: SPE-MS detection of LpxA product. It is filed as biochemical.

The target of assay [6] is T1, E. coli LpxA. Nature of the assay: SPR. The class given is binding.
Assay [7] deals with MG1655 E. coli K-12. Nature of the assay: microbe, parasite or virus in culture. The conditions noted are these: Escherichia coli.
Assay [8] concerns the target T1, E. coli LpxA. Briefly: SPR. It is filed as binding. This is another data set of the same source.
Assay [9] addresses T1, E. coli LpxA. Nature of the assay: SPE-MS detection of LpxA product. It is filed as biochemical. The source holds these as a separate data set.
Assay [10] has as its target T1, E. coli LpxA. Briefly: SPE-MS detection of LpxA product. The class given is biochemical. The source holds these as a separate data set.

In brackets after ≈: the same amount, converted by molar mass. Where two headings read alike, the source gives them in different places.

For `C[C@@H](O)[C@H](NC(=O)c1ccc(C#Cc2ccc(CN3CCOCC3)cc2)cc1)C(=O)NO` [CHIR-090], the MIC in assay [1] (read-out: MIC CHIR-090) turned out to be 0.075 µg/mL (≈ 0.171 µM); in assay [2] (read-out: MIC CHIR-090), 0.015 µg/mL (≈ 0.0343 µM). Consider `COc1ccc(C(=O)CN2C(=O)NC(c3ccccc3)(c3ccccc3)C2=O)cc1` [compound 1], for which the MIC is more than 16 µg/mL in assay [3] (ATCC25922, read-out: MIC compound 1); 0.5 µg/mL (≈ 1.25 µM) in assay [1] (read-out: MIC compound 1); 0.5 µg/mL (≈ 1.25 µM) in assay [4]; 0.5 µg/mL (≈ 1.25 µM) in assay [2] (read-out: MIC compound 1); more than 16 µg/mL in assay [7] (MG1655, read-out: MIC compound 1). Moreover, the IC50 in assay [5] was determined as 1.4 µM. The molecule further gave a Kd in assay [6] of 0.1 µM. Regarding `Cc1ccnc(-c2cc(C(=O)N3CCOC[C@H]3Cc3ccccc3)[nH]n2)c1` [compound 2], the MIC is more than 128 µg/mL in assay [3] (ATCC25922, read-out: MIC compound 2); 2 µg/mL (≈ 5.52 µM) in assay [1] (read-out: MIC compound 2); 2 µg/mL (≈ 5.52 µM) in [2] (read-out: MIC compound 2); more than 128 µg/mL in [7] (MG1655, read-out: MIC compound 2). The molecule also displayed a Kd in assay [8] of 110 µM. Also, half-maximal inhibition in assay [9] (IC50) required 4.8 µM. In the case of `Cc1ccnc(-c2cc(C(=O)N3CCOCC3)[nH]n2)c1` [compound 3], the IC50 in [5] is more than 250 µM. On the same count and under the same terms, the value for `Cc1ccnc(-c2cc(C(=O)N3CCOC[C@H]3C(C)C)[nH]n2)c1` [compound 4] was 148 µM. Still for that read-out and setting: the value for `Cc1ccnc(-c2cc(C(=O)N3CCOC[C@H]3Cc3ccccn3)[nH]n2)c1` [compound 5] was 86 µM. Take `Cc1ccnc(-c2cc(C(=O)N3CCOC[C@H]3Cc3ccccc3F)[nH]n2)c1` [compound 6]: the midpoint of inhibition in assay [10], the IC50, lay at 3 µM.

In assay [5], `Cc1ccnc(-c2cc(C(=O)N3CCOC[C@H]3Cc3ccccc3Cl)[nH]n2)c1` [compound 7] had an IC50 of 2.9 µM. In assay [10], `COc1ccccc1C[C@@H]1COCCN1C(=O)c1cc(-c2cc(C)ccn2)n[nH]1` [compound 8] gave an IC50 of 11 µM.

In [5], `COc1cccc(F)c1C[C@@H]1COCCN1C(=O)c1cc(-c2cc(C)ccn2)n[nH]1` [compound 9] came in with an IC50 of 2.5 µM. Same read-out and setting: the result for `COc1cccc(Cl)c1C[C@@H]1COCCN1C(=O)c1cc(-c2cc(C)ccn2)n[nH]1` [compound 11] reads 0.5 µM; that for `Cc1ccnc(-c2cc(C(=O)N3CCOC[C@@H]3Cc3ccccc3)[nH]n2)c1` [compound 12], 171 µM. Take `COc1cccc(Cl)c1C[C@@H]1COCCN1C(=O)c1cc(-c2cc(C)c(N)cn2)n[nH]1` [compound 13]: half-maximal inhibition in assay [10] (IC50) was put at 0.6 µM.
